Data set [1] concerns convulsions induced (MES). Put plainly: MES test (convulsions produced by electroshocks) in mice, drugs alone and in combination, isobolographic analysis. Type of data set: in vivo. The protocol:
MES test in rodents is broadly accepted as an experimental model of tonic-clonic convulsions or certain partial convulsions with or without secondary generalization. Brain concentrations were also assessed with anti-epilepsy compounds to monitor whether effects result in a pharmacodynamic and/or pharmacokinetic interaction.
Tests were carried out in Swiss, male, adult, albine mice with a weight between 22-26 gr.
Firstly, separately administered medicament effects were studied.

The conditions of data set [2]: cited from earlier work.
The conditions of data set [3]: cited from earlier work. This is another data set of the same source.
The conditions of data set [4]: in vivo; cited from earlier work.
[5] abbreviates: LTG 3 mg/kg peritoneally, 60 minutes before MES test.
Where [6] appears, read: LTG 4 mg/kg peritoneally, 60 minutes before MES test.
Setting [7] is: LTG 5 mg/kg peritoneally, 60 minutes before MES test.
The mark [8] stands for this setting: LTG 6 mg/kg peritoneally, 60 minutes before MES test.
Setting [9] is: LTG 8 mg/kg peritoneally, 60 minutes before MES test.
Where [10] appears, read: CZP 20 mg/kg peritoneally, 30 minutes before MES test.
[11] abbreviates: CZP 25 mg/kg peritoneally, 30 minutes before MES test.
Where [12] appears, read: CZP 30 mg/kg peritoneally, 30 minutes before MES test.
[13] abbreviates: CZP 35 mg/kg peritoneally, 30 minutes before MES test.
The mark [14] stands for this setting: CZP 40 mg/kg peritoneally, 30 minutes before MES test.

On to `Nc1nnc(-c2cccc(Cl)c2Cl)c(N)n1` [LTG, Lamotrigine], for which, in data set [1] (setting [5]), the “% (Percentage of protection against MES test)” value turned out to be 0% and the “P/T (Number of protected animals against electroconvulsion / Total number of animals challenged with MES test)” value is reported as 0/8. Moreover, in data set [1] (setting [6]), the “% (Percentage of protection against MES test)” value came out at 25% and the “P/T (Number of protected animals against electroconvulsion / Total number of animals challenged with MES test)” value was 2/8. In data set [1] (setting [7]), the “% (Percentage of protection against MES test)” value worked out at 50% and the “P/T (Number of protected animals against electroconvulsion / Total number of animals challenged with MES test)” value is on record as 4/8. In addition, in data set [1] (setting [8]), the “% (Percentage of protection against MES test)” value was 75% and the “P/T (Number of protected animals against electroconvulsion / Total number of animals challenged with MES test)” value is given as 6/8. In data set [1] (setting [9]), the “% (Percentage of protection against MES test)” value is 100% and the “P/T (Number of protected animals against electroconvulsion / Total number of animals challenged with MES test)” value is 8/8. Further, the “removed without changes by feces” value in data set [2] (feces) is 2%. Moreover, the drug unalteredly removed in data set [2] (in vivo) was 10%. For the same compound, the “attachment to plasma proteins” value in data set [3] is “about 55%”. Moreover, in data set [4], the “adverse event: asthenia” value is given as 10%, the “adverse event: ataxia” value is 11%, the “adverse event: diplopy” value is 14% and the “adverse event: generalized allergic rash” value was 2-3%. Also, in data set [4], the “adverse event: headache” value is listed as 12%, the “adverse event: skin rash” value is listed as 3%, the “adverse event: somnolence” value is recorded as 13% and the “adverse event: vertigo” value is recorded as 14%.

As usually defined, the bioavailability is the share of a dose that reaches the circulation, judged against a reference dose that is usually intravenous. Consider `O=C1CN=C(c2ccccc2Cl)c2cc([N+](=O)[O-])ccc2N1` [CZP, Clonazepam], for which the “% (Percentage of protection against MES test)” value amounted to 12.5% in data set [1] (setting [10]); 25% in data set [1] (setting [11]); 50% in data set [1] (setting [12]); 75% in data set [1] (setting [13]); 100% in data set [1] (setting [14]). Moreover, the “P/T (Number of protected animals against electroconvulsion / Total number of animals challenged with MES test)” value in data set [1] (setting [10]) is on record as 1/8; in data set [1] (setting [11]), 2/8; in data set [1] (setting [12]) it was 4/8; in data set [1] (setting [13]), 6/8; in data set [1] (setting [14]), 8/8. For the same compound, the bioavailability in data set [2] (orally administered) is on record as 90%. For the same compound, the “recovered in urine in unaltered form” value in data set [2] (urine, po) is listed as “Less than 0.5%”. The “attachment to plasma proteins” value in data set [3] is listed as 85%.

The values above are taken from EP2179735A1 (WORLD-TRADE IMPORT-EXPORT, WTIE, A.G., priority 2007, dated 2009).
